Measurements from article PMC3367765 (Pflugers Archiv, 2012).
Where two headings read alike, the source gives them in different places. Blank lines part the entries; values can stand above or below the molecule they belong to.

Assays:
Kvβ3 = target: T1, Kvβ3 (Mus musculus, UniProt F6YMI4); assay: fluorescence titration; assay type: binding
T1 sequence (F6YMI4 1-404): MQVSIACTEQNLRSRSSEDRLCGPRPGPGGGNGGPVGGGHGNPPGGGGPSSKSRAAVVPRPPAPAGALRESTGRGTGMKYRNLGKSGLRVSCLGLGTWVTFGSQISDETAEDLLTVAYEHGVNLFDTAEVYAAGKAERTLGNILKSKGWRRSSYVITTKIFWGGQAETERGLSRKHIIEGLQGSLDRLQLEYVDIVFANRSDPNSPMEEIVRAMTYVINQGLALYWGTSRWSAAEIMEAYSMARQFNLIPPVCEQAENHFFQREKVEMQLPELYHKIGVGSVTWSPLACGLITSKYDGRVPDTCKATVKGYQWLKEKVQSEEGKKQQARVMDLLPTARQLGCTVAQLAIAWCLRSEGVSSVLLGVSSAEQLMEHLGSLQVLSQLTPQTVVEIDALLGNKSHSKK

[1] = target: T2, Kvβ2 (AKR part, amino acid residues 39-367) (UniProt P62483 39-367); assay: pull-down
T2 sequence (looked up): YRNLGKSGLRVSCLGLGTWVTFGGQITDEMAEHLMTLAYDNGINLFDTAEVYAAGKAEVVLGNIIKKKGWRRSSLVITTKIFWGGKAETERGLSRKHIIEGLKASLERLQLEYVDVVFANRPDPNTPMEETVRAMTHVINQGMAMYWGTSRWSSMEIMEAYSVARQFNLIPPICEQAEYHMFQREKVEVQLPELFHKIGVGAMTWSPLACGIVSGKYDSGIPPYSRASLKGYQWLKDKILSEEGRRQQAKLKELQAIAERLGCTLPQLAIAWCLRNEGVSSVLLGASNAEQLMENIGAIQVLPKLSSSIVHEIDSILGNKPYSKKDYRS

[2] = target: T2, Kvβ2 (AKR part, amino acid residues …); assay: pull-down; remark: listed apart in the source

Kd (Kvβ3): 5.6 ± 0.26 µM
Molecule: NC(=O)C1=CN([C@@H]2O[C@H](COP(=O)(O)OP(=O)(O)OC[C@H]3O[C@@H](n4cnc5c(N)ncnc54)[C@H](OP(=O)(O)O)[C@@H]3O)[C@@H](O)[C@H]2O)C=CC1 [NADPH]

Kd (Kvβ3): 38 ± 9 µM
Molecule: NC(=O)c1ccc[n+]([C@@H]2O[C@H](COP(=O)(O)OP(=O)(O)OC[C@H]3O[C@@H](n4cnc5c(N)ncnc54)[C@H](OP(=O)(O)O)[C@@H]3O)[C@@H](O)[C@H]2O)c1 [NADP^+]

Kd [1]: 9.9 ± 1.7 µM
Kd [2]: 5.2 ± 0.8 µM
B1: GST-C60 protein expressed from pDEST-26 vector (domain or fragment, rat, UniProt P19024 543-602, looked up)
chain: RKVSCSKASFCKTGGSLESSDSIRRGSCPLEKCHLKAKSNVDLRRSLYALCLDTSRETDL
